How the values were obtained:
Assay in all cases: relative viability (nuclei count vs DMSO), 5 days (fraction); higher = more cells survive
Selumetinib + Pictilisib = compound: Cn1cnc2c(F)c(Nc3ccc(Br)cc3Cl)c(C(=O)NOCCO)cc21 [Selumetinib] + CS(=O)(=O)N1CCN(Cc2cc3nc(-c4cccc5[nH]ncc45)nc(N4CCOCC4)c3s2)CC1 [Pictilisib] (partner 1 µM)
Outline: (§1)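 Relative viability is defined as nuclei in treated wells over nuclei in vehicle wells. Duplicate plates were run and medians reported. Lung cancer cell lines in 1536-well plates were dosed by pin tool one day after seeding, with one drug or with a fixed anchor-drug dose plus five library-drug doses (not always all listed) in √10 steps, and nuclei were counted after 5 days.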

Selumetinib + Olaparib = compound: Cn1cnc2c(F)c(Nc3ccc(Br)cc3Cl)c(C(=O)NOCCO)cc21 [Selumetinib] + O=C(c1cc(Cc2n[nH]c(=O)c3ccccc23)ccc1F)N1CCN(C(=O)C2CC2)CC1 [Olaparib] (partner 8 µM)
Outline: as §1

Venetoclax + Trametinib = compound: CC1(C)CCC(CN2CCN(c3ccc(C(=O)NS(=O)(=O)c4ccc(NCC5CCOCC5)c([N+](=O)[O-])c4)c(Oc4cnc5[nH]ccc5c4)c3)CC2)=C(c2ccc(Cl)cc2)C1 [Venetoclax] + CC(=O)Nc1cccc(-n2c(=O)n(C3CC3)c(=O)c3c(Nc4ccc(I)cc4F)n(C)c(=O)c(C)c32)c1 [Trametinib] (partner 0.02 µM)
Outline: as §1

Venetoclax + Luminespib = compound: CC1(C)CCC(CN2CCN(c3ccc(C(=O)NS(=O)(=O)c4ccc(NCC5CCOCC5)c([N+](=O)[O-])c4)c(Oc4cnc5[nH]ccc5c4)c3)CC2)=C(c2ccc(Cl)cc2)C1 [Venetoclax] + CCNC(=O)c1noc(-c2cc(C(C)C)c(O)cc2O)c1-c1ccc(CN2CCOCC2)cc1 [Luminespib] (partner 0.01 µM)
Outline: as §1

LXF-289
relative viability (Selumetinib + Pictilisib; first compound 0.02 µM): 0.735
relative viability (Selumetinib + Pictilisib; first compound 0.06325 µM): 0.615
relative viability (Selumetinib + Pictilisib; first compound 0.2 µM): 0.537
relative viability (Selumetinib + Pictilisib; first compound 0.6325 µM): 0.552
relative viability (Selumetinib + Olaparib; first compound 0.02 µM): 1.04
relative viability (Selumetinib + Olaparib; first compound 0.06325 µM): 1.01
relative viability (Selumetinib + Olaparib; first compound 0.2 µM): 0.963
relative viability (Selumetinib + Olaparib; first compound 0.6325 µM): 1.04
relative viability (Venetoclax + Trametinib; first compound 0.01 µM): 0.716
relative viability (Venetoclax + Trametinib; first compound 0.03162 µM): 0.692
relative viability (Venetoclax + Trametinib; first compound 0.1 µM): 0.629
relative viability (Venetoclax + Trametinib; first compound 0.3162 µM): 0.625
relative viability (Venetoclax + Trametinib; first compound 1 µM): 0.575
relative viability (Venetoclax + Luminespib; first compound 0.01 µM): 0.787
relative viability (Venetoclax + Luminespib; first compound 0.03162 µM): 0.7
relative viability (Venetoclax + Luminespib; first compound 0.1 µM): 0.61
relative viability (Venetoclax + Luminespib; first compound 0.3162 µM): 0.663
relative viability (Venetoclax + Luminespib; first compound 1 µM): 0.472

NCI-H23
relative viability (Selumetinib + Pictilisib; first compound 0.02 µM): 0.484
relative viability (Selumetinib + Pictilisib; first compound 0.06325 µM): 0.344
relative viability (Selumetinib + Pictilisib; first compound 0.2 µM): 0.352
relative viability (Selumetinib + Pictilisib; first compound 0.6325 µM): 0.29
relative viability (Selumetinib + Olaparib; first compound 0.02 µM): 0.283
relative viability (Selumetinib + Olaparib; first compound 0.06325 µM): 0.312
relative viability (Selumetinib + Olaparib; first compound 0.2 µM): 0.267
relative viability (Selumetinib + Olaparib; first compound 0.6325 µM): 0.293
relative viability (Venetoclax + Trametinib; first compound 0.01 µM): 0.441
relative viability (Venetoclax + Trametinib; first compound 0.03162 µM): 0.427
relative viability (Venetoclax + Trametinib; first compound 0.1 µM): 0.365
relative viability (Venetoclax + Trametinib; first compound 0.3162 µM): 0.346
relative viability (Venetoclax + Trametinib; first compound 1 µM): 0.346
relative viability (Venetoclax + Luminespib; first compound 0.01 µM): 0.222
relative viability (Venetoclax + Luminespib; first compound 0.03162 µM): 0.226
relative viability (Venetoclax + Luminespib; first compound 0.1 µM): 0.215
relative viability (Venetoclax + Luminespib; first compound 0.3162 µM): 0.228
relative viability (Venetoclax + Luminespib; first compound 1 µM): 0.22

NCI-H322M
relative viability (Selumetinib + Pictilisib; first compound 0.02 µM): 0.428
relative viability (Selumetinib + Pictilisib; first compound 0.06325 µM): 0.415
relative viability (Selumetinib + Pictilisib; first compound 0.2 µM): 0.446
relative viability (Selumetinib + Pictilisib; first compound 0.6325 µM): 0.373
relative viability (Selumetinib + Olaparib; first compound 0.02 µM): 0.662
relative viability (Selumetinib + Olaparib; first compound 0.06325 µM): 0.63
relative viability (Selumetinib + Olaparib; first compound 0.2 µM): 0.564
relative viability (Selumetinib + Olaparib; first compound 0.6325 µM): 0.599
relative viability (Venetoclax + Trametinib; first compound 0.01 µM): 0.528
relative viability (Venetoclax + Trametinib; first compound 0.03162 µM): 0.519
relative viability (Venetoclax + Trametinib; first compound 0.1 µM): 0.436
relative viability (Venetoclax + Trametinib; first compound 0.3162 µM): 0.534
relative viability (Venetoclax + Trametinib; first compound 1 µM): 0.562
relative viability (Venetoclax + Luminespib; first compound 0.01 µM): 1
relative viability (Venetoclax + Luminespib; first compound 0.03162 µM): 0.842
relative viability (Venetoclax + Luminespib; first compound 0.1 µM): 0.814
relative viability (Venetoclax + Luminespib; first compound 0.3162 µM): 0.944
relative viability (Venetoclax + Luminespib; first compound 1 µM): 0.941

NCI-H358
relative viability (Selumetinib + Pictilisib; first compound 0.02 µM): 0.316
relative viability (Selumetinib + Pictilisib; first compound 0.06325 µM): 0.302
relative viability (Selumetinib + Pictilisib; first compound 0.2 µM): 0.314
relative viability (Selumetinib + Pictilisib; first compound 0.6325 µM): 0.277
relative viability (Selumetinib + Olaparib; first compound 0.02 µM): 0.463
relative viability (Selumetinib + Olaparib; first compound 0.06325 µM): 0.367
relative viability (Selumetinib + Olaparib; first compound 0.2 µM): 0.282
relative viability (Selumetinib + Olaparib; first compound 0.6325 µM): 0.207
relative viability (Venetoclax + Trametinib; first compound 0.01 µM): 0.117
relative viability (Venetoclax + Trametinib; first compound 0.03162 µM): 0.14
relative viability (Venetoclax + Trametinib; first compound 0.1 µM): 0.106
relative viability (Venetoclax + Trametinib; first compound 0.3162 µM): 0.126
relative viability (Venetoclax + Trametinib; first compound 1 µM): 0.135
relative viability (Venetoclax + Luminespib; first compound 0.01 µM): 0.402
relative viability (Venetoclax + Luminespib; first compound 0.03162 µM): 0.313
relative viability (Venetoclax + Luminespib; first compound 0.1 µM): 0.245
relative viability (Venetoclax + Luminespib; first compound 0.3162 µM): 0.579
relative viability (Venetoclax + Luminespib; first compound 1 µM): 0.321

NCI-H522
relative viability (Selumetinib + Olaparib; first compound 0.02 µM): 0.676
relative viability (Selumetinib + Olaparib; first compound 0.06325 µM): 0.74
relative viability (Selumetinib + Olaparib; first compound 0.2 µM): 0.542
relative viability (Selumetinib + Olaparib; first compound 0.6325 µM): 0.581
relative viability (Venetoclax + Trametinib; first compound 0.01 µM): 0.716
relative viability (Venetoclax + Trametinib; first compound 0.03162 µM): 0.747
relative viability (Venetoclax + Trametinib; first compound 0.1 µM): 0.674
relative viability (Venetoclax + Trametinib; first compound 0.3162 µM): 0.728
relative viability (Venetoclax + Trametinib; first compound 1 µM): 0.655
relative viability (Venetoclax + Luminespib; first compound 0.01 µM): 1.14
relative viability (Venetoclax + Luminespib; first compound 0.03162 µM): 1.21
relative viability (Venetoclax + Luminespib; first compound 0.1 µM): 1.04
relative viability (Venetoclax + Luminespib; first compound 1 µM): 1.19

NCI-H1299
relative viability (Selumetinib + Pictilisib; first compound 0.02 µM): 0.673
relative viability (Selumetinib + Pictilisib; first compound 0.06325 µM): 0.51
relative viability (Selumetinib + Pictilisib; first compound 0.2 µM): 0.389
relative viability (Selumetinib + Pictilisib; first compound 0.6325 µM): 0.359
relative viability (Selumetinib + Olaparib; first compound 0.02 µM): 1.08
relative viability (Selumetinib + Olaparib; first compound 0.06325 µM): 1.08
relative viability (Selumetinib + Olaparib; first compound 0.2 µM): 1.11
relative viability (Selumetinib + Olaparib; first compound 0.6325 µM): 0.932

NCI-H1563
relative viability (Selumetinib + Pictilisib; first compound 0.02 µM): 0.616
relative viability (Selumetinib + Pictilisib; first compound 0.06325 µM): 0.587
relative viability (Selumetinib + Pictilisib; first compound 0.2 µM): 0.753
relative viability (Selumetinib + Pictilisib; first compound 0.6325 µM): 0.638
relative viability (Venetoclax + Luminespib; first compound 0.01 µM): 0.548
relative viability (Venetoclax + Luminespib; first compound 0.03162 µM): 0.546
relative viability (Venetoclax + Luminespib; first compound 0.1 µM): 0.499
relative viability (Venetoclax + Luminespib; first compound 0.3162 µM): 0.447
relative viability (Venetoclax + Luminespib; first compound 1 µM): 0.577

NCI-H1623
relative viability (Venetoclax + Luminespib; first compound 0.01 µM): 0.545
relative viability (Venetoclax + Luminespib; first compound 0.03162 µM): 0.502
relative viability (Venetoclax + Luminespib; first compound 0.1 µM): 0.566
relative viability (Venetoclax + Luminespib; first compound 0.3162 µM): 0.6
relative viability (Venetoclax + Luminespib; first compound 1 µM): 0.464

NCI-H1648
relative viability (Selumetinib + Olaparib; first compound 0.06325 µM): 0.914
relative viability (Selumetinib + Olaparib; first compound 0.2 µM): 0.742
relative viability (Selumetinib + Olaparib; first compound 0.6325 µM): 0.493
relative viability (Venetoclax + Trametinib; first compound 0.03162 µM): 0.628
relative viability (Venetoclax + Trametinib; first compound 0.1 µM): 0.358
relative viability (Venetoclax + Trametinib; first compound 0.3162 µM): 0.427
relative viability (Venetoclax + Trametinib; first compound 1 µM): 0.53

NCI-H1703
relative viability (Selumetinib + Pictilisib; first compound 0.02 µM): 0.231
relative viability (Selumetinib + Pictilisib; first compound 0.06325 µM): 0.193
relative viability (Selumetinib + Pictilisib; first compound 0.2 µM): 0.229
relative viability (Selumetinib + Pictilisib; first compound 0.6325 µM): 0.283
relative viability (Selumetinib + Olaparib; first compound 0.02 µM): 0.521
relative viability (Selumetinib + Olaparib; first compound 0.06325 µM): 0.411
relative viability (Selumetinib + Olaparib; first compound 0.2 µM): 0.39
relative viability (Selumetinib + Olaparib; first compound 0.6325 µM): 0.605

NCI-H2342
relative viability (Selumetinib + Olaparib; first compound 0.02 µM): 0.403
relative viability (Selumetinib + Olaparib; first compound 0.06325 µM): 0.4
relative viability (Selumetinib + Olaparib; first compound 0.2 µM): 0.43
relative viability (Selumetinib + Olaparib; first compound 0.6325 µM): 0.415
relative viability (Venetoclax + Trametinib; first compound 0.01 µM): 0.77
relative viability (Venetoclax + Trametinib; first compound 0.03162 µM): 0.762
relative viability (Venetoclax + Trametinib; first compound 0.1 µM): 0.979
relative viability (Venetoclax + Trametinib; first compound 0.3162 µM): 0.839
relative viability (Venetoclax + Trametinib; first compound 1 µM): 0.819
relative viability (Venetoclax + Luminespib; first compound 0.01 µM): 0.807
relative viability (Venetoclax + Luminespib; first compound 0.03162 µM): 0.737
relative viability (Venetoclax + Luminespib; first compound 0.1 µM): 0.635
relative viability (Venetoclax + Luminespib; first compound 0.3162 µM): 0.765
relative viability (Venetoclax + Luminespib; first compound 1 µM): 0.719

SW 900
relative viability (Selumetinib + Olaparib; first compound 0.02 µM): 0.96
relative viability (Selumetinib + Olaparib; first compound 0.06325 µM): 0.798
relative viability (Selumetinib + Olaparib; first compound 0.2 µM): 0.788
relative viability (Selumetinib + Olaparib; first compound 0.6325 µM): 0.843
relative viability (Venetoclax + Trametinib; first compound 0.01 µM): 0.853
relative viability (Venetoclax + Trametinib; first compound 0.03162 µM): 0.711
relative viability (Venetoclax + Trametinib; first compound 0.1 µM): 0.824
relative viability (Venetoclax + Trametinib; first compound 0.3162 µM): 0.761
relative viability (Venetoclax + Trametinib; first compound 1 µM): 0.657
relative viability (Venetoclax + Luminespib; first compound 0.01 µM): 0.163
relative viability (Venetoclax + Luminespib; first compound 0.03162 µM): 0.153
relative viability (Venetoclax + Luminespib; first compound 0.1 µM): 0.197
relative viability (Venetoclax + Luminespib; first compound 0.3162 µM): 0.168
relative viability (Venetoclax + Luminespib; first compound 1 µM): 0.182
